Patent publication US12545677B2, “Compounds useful as factor XIa inhibitors” (JANSSEN PHARMACEUTICA NV, priority 2020, dated 2026)
Like-named read-outs stand apart in the source and are kept apart here.

What was measured:
[1] = tested on: TK6 human lymphoblastoid cell line; assay: In vitro micronucleus assay; type: cell-based; conditions: TK6 cells, 3 h +S9 and continuous -S9; score of 1 = clearly negative
Procedure: Biological Example 8: In Vitro Micronucleus Assay
The in vitro micronucleus test (MNT) is a genotoxicity test for the detection of micronuclei (MN) in the cytoplasm of interphase cells. Micronuclei may originate from acentric chromosome fragments (i.e., lacking a centromere) or whole chromosomes that are unable to migrate to the poles during the anaphase stage of cell division. Compounds and/or their metabolites are evaluated for their ability to induce chromosome/genome aberrations in a TK6 human lymphoblastoid cell line, in the absence and in the presence of a mammalian metabolic activation system. Human TK6 cells are often used in the in vitro micronucleus test and it is noteworthy that these cells have a wild-type p53 status, a feature that some groups speculate may help to reduce the frequency of false positive results. The assessment is done by means of manual and/or semi-automated microscopical analysis.
The in vitro micronucleus test using TK6 cells is an accepted regulatory genotoxicity assay. […]
Assay principle: Cell cultures were exposed to the test compound both with and without an exogenous source of metabolic activation. […] Harvested and stained interphase cells were analyzed for the presence of micronuclei. […]

[2] = Reactive metabolite study in human liver microsomes (GSH/KCN trapping); type: in vitro ADME; conditions: human liver microsomes 1 mg/mL protein, 10 μM substrate, NADPH, 1 mM GSH, 1 mM KCN, 37° C., 60 min
Procedure: Reactive Metabolite Study in Human Liver Microsomes
The compound of formula (I-A) was assessed for bioactivation in HLM using GSH and KCN as trapping agents. The compound was incubated in human liver microsomes supplemented with NADPH, KCN and GSH at 37° C. for 60 min. The incubations were conducted with 1 mg/mL protein, 10 μM substrate, 1 mM GSH (non-labeled and labeled at 3:1) and KCN 1 mM (non-labeled and labeled at 3:1) in a total volume of 1 mL. Nefazodone (10 μM) was incubated under the same conditions as a positive control. After incubations, protein precipitation was performed for extraction of the metabolites by mixing with 5× volume of acetonitrile. The proteins were pelleted by centrifugation (3000 rpm, 10 minutes, 4° C.) and the supernatants were transferred into clean test tubes and evaporated to dryness under a gentle stream of nitrogen. The resulting residues were reconstituted in 300 μL of solvent mixture of water:acetonitrile (8:2 v/v) containing 0.1% formic acid prior to filtration using 0.45 μm nylon filter at 10,000×g at room temperature for 3 minutes. The filtrate was transferred to a 96-well plate for liquid chromatography/tandem mass spectrometric (LC-MS/MS) analysis.
LC-MS/MS analysis: Agilent 1260 Infinity UHPLC was coupled to a Bruker Q-TOF. The mass spectrometers were operated in a positive electrospray ionization mode. […]

CYP3A4 = target: T1, CYP3A4 (Homo sapiens, UniProt P08684); assay: Assessment of TDI potential using the IC50 shift method; type: in vitro ADME; conditions: CYP3A4 (testosterone)
T1 construct: Frozen human liver microsomes (HLM) were thawed at 37° C; from tissue; host or cells: human liver microsomes
T1 sequence (P08684 whole entry): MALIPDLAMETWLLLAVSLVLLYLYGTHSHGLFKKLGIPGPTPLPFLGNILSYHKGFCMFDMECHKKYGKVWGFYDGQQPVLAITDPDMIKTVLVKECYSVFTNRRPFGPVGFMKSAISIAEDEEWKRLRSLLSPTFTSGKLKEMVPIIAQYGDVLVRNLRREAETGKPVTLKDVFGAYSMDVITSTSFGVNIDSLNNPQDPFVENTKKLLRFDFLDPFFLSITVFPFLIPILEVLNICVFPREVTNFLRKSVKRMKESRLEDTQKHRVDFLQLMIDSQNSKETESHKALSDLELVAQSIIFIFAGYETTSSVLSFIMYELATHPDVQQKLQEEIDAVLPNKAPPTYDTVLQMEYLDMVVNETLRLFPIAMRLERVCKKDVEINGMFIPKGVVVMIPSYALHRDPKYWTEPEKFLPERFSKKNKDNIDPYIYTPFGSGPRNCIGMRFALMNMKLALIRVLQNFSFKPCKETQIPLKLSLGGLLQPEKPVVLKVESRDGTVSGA
Procedure: Assessment of TDI Potential Using the IC50 Shift Method
To establish the potential for TDI of a particular P450 isozyme, the test compound is preincubated over a concentration range (typically 0.04 to 10 μM) with HLMs in the presence of cofactor NADPH for 30 minutes. After pre-incubation, a probe substrate known to be specifically metabolized to a defined metabolite by the isoform under investigation is then added at fixed concentration. Following a pre-defined incubation period (e.g. 10 minutes for the CYP3A4 testosterone assay), the reaction is terminated by addition of a suitable organic solvent (typically, acetonitrile) containing an internal standard. The samples are centrifuged prior to analysis by LC-MS/MS analysis and IC50 TDI value is calculated using curve fitting. This is compared to the IC50 for reversible inhibition, obtained when the pre-incubation step is performed in the absence of […] (IC50 Rev). A leftwards shift in the IC50 (i.e. increased inhibition) upon pre-incubation indicates the potential for TDI of that isozyme. The IC50 shift value is calculated as the ratio of IC50 Rev/IC50 TDI.
The assay was performed on a fully automated Tecan robotic system. Sample analysis was performed via LC-MS/MSMS using stable-labelled internal standard of the probe substrate metabolite.

O=C1C=C(c2c(-n3cnnn3)ccc(Cl)c2F)C[C@H]2CC[C@@H](c3ncc(-c4ccnc(CO)c4F)[nH]3)N12 [Compound of formula (I-A), (3S,8aR)-7-(3-Chloro-2-fluoro-6-(1H-tetrazol-1-yl)phenyl)-3-(5-(3-fluoro-2-(hydroxymethyl)pyridin-4-yl)-1H-imidazol-2-yl)-2,3,8,8a-tetrahydroindolizin-5(1H)-one]
in vitro MNT assay result [1]: negative | formation of GSH adducts or KCN adducts [2]: did not form GSH adducts or KCN adducts | % maximum concentration, without pre-incubation (CYP3A4; HLM): 68.2% | % maximum concentration, with pre-incubation (CYP3A4; HLM, 30 minutes pre-incubation): 62.8% | IC50 (CYP3A4; HLM, 30 minutes pre-incubation with NADPH, read-out: IC50 with pre-incubation): 17.5 ± 2.5 µM | IC50 (CYP3A4; HLM, standard solvent conditions, read-out: IC50 without pre-incubation): 12.2 ± 1.4 µM | IC50 shift (CYP3A4; ratio of IC50 Rev/IC50 TDI): 0.70
